Experimental data taken from PubChem BioAssay AID192 (DTP/NCI, 2004).
“And” between values parts separate entries of the source, which are not always exact repeats. Identical values can stand only once. Toxic doses and inconclusive results are not listed. How the source made its calls: active means survival T/C of 150% or more; inactive means T/C below 125% in these data. Peptide text beside a SMILES is read from it. * marks the point of attachment. CH2Cl = ClC*

System: BDF1 mice, B16 melanoma ip, median survival T/C
Assay: NCI In Vivo Anticancer Drug Screen. Data for tumor model B16 Melanoma (intraperitoneal) in B6D2F1 (BDF1) mice
Conditions: endpoint: median survival time, higher = longer survival
In short: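 Transplantable tumor model; survival or tumor size measured; reported as T/C, treated over vehicle control.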

[1] = dose: 100.0 mg/kg/injection, schedule: Q01DX009 (ip), vehicle: Klucel (hydroxypropylcellulose) (HPC)
[2] = dose: 200.0 mg/kg/injection, schedule: Q01DX009 (ip), vehicle: Klucel (hydroxypropylcellulose) (HPC)
[3] = dose: 400.0 mg/kg/injection, schedule: Q01DX009 (ip), vehicle: Klucel (hydroxypropylcellulose) (HPC)
[4] = dose: 25.0 mg/kg/injection, schedule: Q01DX009 (ip), vehicle: Klucel (hydroxypropylcellulose) (HPC)
[5] = dose: 50.0 mg/kg/injection, schedule: Q01DX009 (ip), vehicle: Klucel (hydroxypropylcellulose) (HPC)
[6] = dose: 100.0 mg/kg/injection, schedule: Q01DX009 (ip), vehicle: saline with Tween-80
[7] = dose: 200.0 mg/kg/injection, schedule: Q01DX009 (ip), vehicle: saline with Tween-80
[8] = dose: 400.0 mg/kg/injection, schedule: Q01DX009 (ip), vehicle: saline with Tween-80
[9] = dose: 3.12 mg/kg/injection, schedule: Q01DX009 (ip), vehicle: Klucel (hydroxypropylcellulose) (HPC)
[10] = dose: 6.25 mg/kg/injection, schedule: Q01DX009 (ip), vehicle: Klucel (hydroxypropylcellulose) (HPC)
[11] = dose: 12.5 mg/kg/injection, schedule: Q01DX009 (ip), vehicle: Klucel (hydroxypropylcellulose) (HPC)
[12] = dose: 12.5 mg/kg/injection, schedule: Q01DX009 (ip), vehicle: saline
[13] = dose: 25.0 mg/kg/injection, schedule: Q01DX009 (ip), vehicle: saline
[14] = dose: 1.56 mg/kg/injection, schedule: Q01DX009 (ip), vehicle: Klucel (hydroxypropylcellulose) (HPC)

Measured: T/C

CCCCCCCCCCCCCCCC[N+](C)(C)C
inactive: dose: 0.5 mg/kg/injection, schedule: Q04DX003 (ip), vehicle: saline 95 % of control | dose: 1.0 mg/kg/injection, schedule: Q01DX009 (ip), vehicle: saline 93 % of control | dose: 1.0 mg/kg/injection, schedule: Q04DX003 (ip), vehicle: saline 95 % of control | dose: 1.25 mg/kg/injection, schedule: Q01DX009 (ip), vehicle: saline with Tween-80 102 % of control | dose: 2.0 mg/kg/injection, schedule: Q01DX009 (ip), vehicle: saline 93 % of control | dose: 2.0 mg/kg/injection, schedule: Q04DX003 (ip), vehicle: saline 95 % of control | dose: 2.5 mg/kg/injection, schedule: Q01DX009 (ip), vehicle: saline with Tween-80 107 % of control | dose: 2.75 mg/kg/injection, schedule: Q01DX009 (ip), vehicle: saline 93 % of control | dose: 4.0 mg/kg/injection, schedule: Q01DX009 (ip), vehicle: saline 91 % of control | dose: 5.0 mg/kg/injection, schedule: Q01DX009 (ip), vehicle: saline with Tween-80 91 % of control | dose: 5.5 mg/kg/injection, schedule: Q01DX009 (ip), vehicle: saline 93 % of control

COc1ccc(NCc2ccc(C)cc2)cc1
inactive: [1] 91 % of control | [2] 94 % of control | [3] 91 % of control

COc1ccc(CCN2CC(=O)NC(=O)C2)cc1OC
inactive: [4] 97 % of control | [5] 91 % of control | [1] 88 % of control | [2] 94 % of control | [3] 91 % of control

FC(F)(F)c1ccc(Cl)c(NC2=NCCCS2)c1
inactive: [5] 96 % of control | [1] 89 % of control

Cc1c2cc3c(c1O)C(=O)CC(O3)c1ccc(O)c(c1)-c1ccc(O)c(c1)C(=O)OCC1OC(O2)C(O)C(O)C1O (stereo not given)
inactive: dose: 0.13 mg/kg/injection, schedule: Q01DX009 (ip), vehicle: Klucel (hydroxypropylcellulose) (HPC) 91 % of control | dose: 0.25 mg/kg/injection, schedule: Q01DX009 (ip), vehicle: Klucel (hydroxypropylcellulose) (HPC) 94 % of control | dose: 0.5 mg/kg/injection, schedule: Q01DX009 (ip), vehicle: Klucel (hydroxypropylcellulose) (HPC) 95 % of control | dose: 1.0 mg/kg/injection, schedule: Q01DX009 (ip), vehicle: Klucel (hydroxypropylcellulose) (HPC) 94 % of control

CC(C)(C)OC(=O)NCCCC(NC(=O)OCc1ccccc1)C(=O)O (stereo not given)
inactive: dose: 50.0 mg/kg/injection, schedule: Q01DX009 (ip), vehicle: saline with Tween-80 101 % of control | [6] 96 % of control | [7] 96 % of control | [8] 86 % of control

C[n+]1ccc2cc(N)c3c4ccccc4sc3c2c1
inactive: [9] 103 % of control | [10] 101 % of control | dose: 6.25 mg/kg/injection, schedule: Q01DX009 (ip), vehicle: saline 113 % of control | [11] 95 % of control | [12] 119 % of control | [13] 91 % of control

NNC(=O)NO
inactive: dose: 12.5 mg/kg/injection, schedule: Q01DX009 (ip), vehicle: saline with Tween-80 102 % of control | dose: 25.0 mg/kg/injection, schedule: Q01DX009 (ip), vehicle: saline with Tween-80 121 % of control

C=C(Cl)CN(CCCC(=O)O)c1cccc(OC)c1
inactive: dose: 100.0 mg/kg/injection, schedule: Q04DX003 (ip), vehicle: other 104 % of control | dose: 200.0 mg/kg/injection, schedule: Q04DX003 (ip), vehicle: other 96 % of control | dose: 400.0 mg/kg/injection, schedule: Q04DX003 (ip), vehicle: other 94 % of control

Cc1ccc(S(=O)(=O)N/N=C/c2ccccc2Cl)cc1
inactive: dose: 1.56 mg/kg/injection, schedule: Q01DX009 (ip), vehicle: other 98 % of control | dose: 3.13 mg/kg/injection, schedule: Q01DX009 (ip), vehicle: other 99 % of control | dose: 6.25 mg/kg/injection, schedule: Q01DX009 (ip), vehicle: other 96 % of control | [11] 91 % of control | dose: 12.5 mg/kg/injection, schedule: Q01DX009 (ip), vehicle: other 90 % of control | [5] 89 % of control | [1] 86 % of control

CC(=O)OCC(Br)C(Br)COC(C)=O (stereo not given)
inactive: [6] 100 % of control | [7] 97 % of control | [8] 97 % of control

CC(Cc1ccccc1)NN (stereo not given)
inactive: dose: 0.97 mg/kg/injection, schedule: Q01DX009 (ip), vehicle: saline 110 % of control | dose: 1.95 mg/kg/injection, schedule: Q01DX009 (ip), vehicle: saline 112 % of control | dose: 3.9 mg/kg/injection, schedule: Q01DX009 (ip), vehicle: saline 102 % of control | dose: 7.81 mg/kg/injection, schedule: Q01DX009 (ip), vehicle: saline 112 % of control

COC(=O)Nc1nc2ccc(C(=O)c3ccccc3)cc2[nH]1
inactive: dose: 2.0 mg/kg/injection, schedule: Q04DX003 (ip), vehicle: saline with Tween-80 95 % of control | dose: 4.0 mg/kg/injection, schedule: Q04DX003 (ip), vehicle: saline with Tween-80 106 % of control | dose: 8.0 mg/kg/injection, schedule: Q04DX003 (ip), vehicle: saline with Tween-80 101 % of control | dose: 15.0 mg/kg/injection, schedule: Q04DX003 (ip), vehicle: saline with Tween-80 114 % of control | dose: 16.0 mg/kg/injection, schedule: Q04DX003 (ip), vehicle: saline with Tween-80 103 % of control | dose: 200.0 mg/kg/injection, schedule: Q04DX003 (oral), vehicle: saline with Tween-80 115 % of control

CC(=O)NC(CC(C)C)C(=O)NC(Cc1ccccc1)C(=O)CCl (stereo not drawn) (Ac-Leu-Phe-CH2Cl; configuration not given here)
inactive: [14] 100 % of control | [9] 100 % of control | [10] 96 % of control and 97 % of control

COC(OC(CO)C(O)S(=O)(=O)O)C(O)S(=O)(=O)O (stereo not given)
inactive: [12] 104 % of control | [13] 107 % of control | dose: 50.0 mg/kg/injection, schedule: Q01DX009 (ip), vehicle: saline 111 % of control | dose: 100.0 mg/kg/injection, schedule: Q01DX009 (ip), vehicle: saline 119 % of control

COc1cccc(CNc2cccc(Cl)c2Cl)c1OC
inactive: [11] 99 % of control | [4] 105 % of control | [5] 101 % of control | [1] 101 % of control | [2] 95 % of control | [3] 102 % of control

CCNC(C)(C)C(SSS)c1ccco1 (stereo not given)
inactive: [11] 98 % of control | [4] 94 % of control | [5] 104 % of control

C[Si](C)(C)Cc1ccccc1
inactive: [1] 114 % of control | [2] 109 % of control

CCOc1ccc(OCC)c(NC(=O)c2ccccc2)c1
inactive: [6] 114 % of control | [7] 110 % of control | [8] 110 % of control

CCCC(CCC)(C(=O)OCC)C(=O)OCC
inactive: [1] 92 % of control | dose: 100.0 mg/kg/injection, schedule: Q04DX003 (ip), vehicle: Klucel (hydroxypropylcellulose) (HPC) 105 % of control | [2] 96 % of control | dose: 200.0 mg/kg/injection, schedule: Q04DX003 (ip), vehicle: Klucel (hydroxypropylcellulose) (HPC) 97 % of control | [3] 92 % of control | dose: 400.0 mg/kg/injection, schedule: Q04DX003 (ip), vehicle: Klucel (hydroxypropylcellulose) (HPC) 91 % of control

CC[C@@H](C(=O)[C@@H](C)[C@@H](O)[C@H](C)CCc1ccc(C)c(O)c1C(=O)O)[C@H]1O[C@](CC)([C@H]2CC[C@](O)(CC)[C@H](C)O2)C[C@@H]1C
inactive: [14] 111 % of control | [9] 102 % of control | [10] 111 % of control
